The values that follow come from ChEMBL document CHEMBL1126805, “Synthesis and evaluation of a series of benzylaniline hydrochlorides as potential cytotoxic and antimitotic agents acting by inhibition of tubulin polymerization” (J Med Chem, 1993).

Usually GI50 stands for the concentration that inhibits growth by half. What is called pIC50 is the IC50 on a negative log10 scale, so that one unit is a factor of ten.

One assay has as its system OVCAR-3. Kind of assay: Tested for cytotoxicity against OVCAR-3 (ovarian cancer) cell line. In kind it is functional, Homo sapiens.
The next assay has as its system DMS-273. Kind of assay: Tested for cytotoxicity against DMS 273 (small-cell lung cancer) cell line. In kind it is functional, Homo sapiens.
The next assay concerns HL-60. Kind of assay: Tested for cytotoxicity against human cancer cell lines HL-60(TB) (leukemia) cell line. In kind it is functional.
The test system of a further assay is SF-295. Kind of assay: In vitro cytotoxicity against SF-295 (CNS cancer) cell line. In kind it is functional, Homo sapiens.
In another assay the test system is M14. Kind of assay: Tested for cytotoxicity against M14 melanoma. In kind it is functional, Homo sapiens.
In a further assay the target is Tubulin (Bos taurus, UniProt Q6B856+Q862F3). Kind of assay: In vitro inhibition of bovine electrophoretically homogeneous tubulin polymerization. In kind it is functional.
Chain of Tubulin (Q6B856 whole entry): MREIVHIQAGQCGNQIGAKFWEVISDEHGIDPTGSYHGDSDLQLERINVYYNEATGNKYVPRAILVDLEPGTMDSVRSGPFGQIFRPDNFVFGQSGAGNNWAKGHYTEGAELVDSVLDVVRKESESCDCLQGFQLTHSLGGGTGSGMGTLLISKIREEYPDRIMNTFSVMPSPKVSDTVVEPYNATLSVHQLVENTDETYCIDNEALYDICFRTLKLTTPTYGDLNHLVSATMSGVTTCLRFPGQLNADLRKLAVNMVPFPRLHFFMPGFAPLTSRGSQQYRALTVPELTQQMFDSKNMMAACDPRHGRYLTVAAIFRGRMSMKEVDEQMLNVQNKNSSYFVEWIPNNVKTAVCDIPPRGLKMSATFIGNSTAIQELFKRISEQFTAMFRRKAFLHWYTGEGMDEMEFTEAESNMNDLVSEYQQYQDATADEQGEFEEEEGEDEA
Chain of Tubulin (Q862F3 whole entry): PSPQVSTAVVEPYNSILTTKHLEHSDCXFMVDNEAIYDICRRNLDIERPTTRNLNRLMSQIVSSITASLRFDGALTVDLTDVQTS
Another assay has as its system COLO 205. Kind of assay: Tested for cytotoxicity against COLO 205 (colon cancer) cell line. In kind it is functional, Homo sapiens.
A further assay deals with CAKI-1. Kind of assay: Tested for cytotoxicity against CAKI-1 renal cancer. In kind it is functional, Homo sapiens.
A further assay concerns NCI-H522. Kind of assay: Tested for cytotoxicity against NCI-H522 (non-small-cell lung cancer) cell line. In kind it is functional, Homo sapiens.

pIC50: −log10 of the molar value.

As for `CCOc1ccc(NCc2cc(OC)c(OC)c(OC)c2)cc1` [listing 1 of 2 here], the GI50 in the assay on OVCAR-3 stood at 0.464 µM; with DMS-273, 0.961 µM; in the assay on HL-60 it was 0.448 µM; with SF-295 it was 0.418 µM; with M14, 0.532 µM; with COLO 205, 0.538 µM. Moreover, the GI50 in the assay on CAKI-1 turned out to be 1.05 µM; in the assay with NCI-H522, 0.574 µM. Besides, the pIC50 on Tubulin was 4.96.

As for `CCOc1ccc(NCc2cc(OC)c(OC)c(OC)c2)cc1` [listing 2 of 2 here], the GI50 amounted to 0.34 µM in the assay with OVCAR-3 (Homo sapiens, OVCAR-3); 0.296 µM with DMS-273; 0.296 µM with HL-60 (Homo sapiens, HL-60); 0.274 µM in the assay with SF-295 (Homo sapiens, SF-295); 0.403 µM in the assay with M14 (Homo sapiens, M14); 0.432 µM in the assay with COLO 205 (Homo sapiens, COLO 205). In addition, the GI50 with CAKI-1 (Homo sapiens, CAKI-1) was determined as 2.04 µM; in the assay on NCI-H522 (Homo sapiens, NCI-H522) it was 0.38 µM. Also, on Tubulin, the pIC50 is 4.92.

For `COc1ccc(/C=C\c2cc(OC)c(OC)c(OC)c2)cc1`, the pIC50 against Tubulin was 5.70.

Molecule `COc1cc(CNc2ccc(C(C)C)cc2)cc(OC)c1OC` gave a GI50 with DMS-273 (Homo sapiens, DMS-273) of 12.9 µM. The molecule further gave a pIC50 on Tubulin below 4.40.

For the molecule `COc1ccc(NCc2cc(OC)c(OC)c(OC)c2)cc1` [listing 1 of 2 here], the GI50 in the assay on OVCAR-3 is 0.363 µM; with DMS-273, 0.141 µM; with HL-60 it was 0.115 µM; with SF-295, 0.266 µM; in the assay with COLO 205 it was 0.235 µM; with CAKI-1, 0.458 µM. The GI50 in the assay on NCI-H522 is 0.412 µM. The same molecule had a pIC50 against Tubulin of 5.34.

With `CCc1ccc(/N=C/c2cc(OC)c(OC)c(OC)c2)cc1`, the GI50 in the assay with OVCAR-3 (Homo sapiens, OVCAR-3) is above 100 µM; in the assay with DMS-273 (Homo sapiens, DMS-273) it was above 100 µM; in the assay on SF-295 (Homo sapiens, SF-295) it was above 100 µM; in the assay with M14 (Homo sapiens, M14) it was above 100 µM; in the assay with CAKI-1 (Homo sapiens, CAKI-1), above 100 µM; in the assay on NCI-H522 (Homo sapiens, NCI-H522) it was above 100 µM. Moreover, the pIC50 against Tubulin was below 4.40.

For the molecule `CCCc1ccc(NCc2cc(OC)c(OC)c(OC)c2)cc1`, growth in the assay on DMS-273 (Homo sapiens, DMS-273) was halved (GI50) at 16.2 µM. Besides, the pIC50 at Tubulin is below 4.40.

In the case of `COc1cc(CNc2ccc(C)cc2)cc(OC)c1OC`, the GI50 in the assay on OVCAR-3 (Homo sapiens, OVCAR-3) was determined as 0.184 µM; in the assay with DMS-273 (Homo sapiens, DMS-273), 0.0926 µM; in the assay with HL-60, 0.122 µM; with SF-295 (Homo sapiens, SF-295), 0.163 µM; with M14 (Homo sapiens, M14), 0.15 µM; in the assay with COLO 205 (Homo sapiens, COLO 205), 0.152 µM. The molecule further returned a GI50 in the assay with CAKI-1 (Homo sapiens, CAKI-1) of 0.192 µM. In addition, at Tubulin, the pIC50 is 5.22.

Consider `CCCc1ccc(/N=C/c2cc(OC)c(OC)c(OC)c2)cc1`, for which the concentration for 50% growth inhibition (GI50) is above 100 µM with OVCAR-3 (Homo sapiens, OVCAR-3); above 100 µM in the assay with DMS-273 (Homo sapiens, DMS-273); 22.6 µM in the assay with HL-60 (Homo sapiens, HL-60); above 100 µM in the assay on SF-295 (Homo sapiens, SF-295); above 100 µM in the assay on M14 (Homo sapiens, M14); above 100 µM with COLO 205 (Homo sapiens, COLO 205). The GI50 was above 100 µM in the assay on CAKI-1 (Homo sapiens, CAKI-1) and above 100 µM in the assay with NCI-H522 (Homo sapiens, NCI-H522). Further, at Tubulin, the pIC50 was below 4.40.

As to `CCc1ccc(NCc2cc(OC)c(OC)c(OC)c2)cc1` [listing 1 of 2 here], the GI50 is 0.405 µM with OVCAR-3; 0.818 µM with DMS-273; 0.245 µM in the assay with HL-60; 0.339 µM in the assay with SF-295; 0.437 µM in the assay on M14; 0.352 µM in the assay on COLO 205. In the assay with NCI-H522, this molecule came in with a concentration for 50% growth inhibition (GI50) of 0.371 µM. This molecule gave a pIC50 on Tubulin of 5.14.

In the case of `COc1cc(/C=N/c2ccc(C(C)C)cc2)cc(OC)c1OC`, the GI50 in the assay on OVCAR-3 (Homo sapiens, OVCAR-3) is above 100 µM; in the assay on DMS-273 (Homo sapiens, DMS-273), 52.5 µM; in the assay with HL-60 (Homo sapiens, HL-60), above 100 µM; in the assay on SF-295 (Homo sapiens, SF-295), above 100 µM; with M14 (Homo sapiens, M14), above 100 µM; in the assay on COLO 205 (Homo sapiens, COLO 205), above 100 µM. The concentration for 50% growth inhibition (GI50) in the assay with CAKI-1 (Homo sapiens, CAKI-1) was above 100 µM; in the assay on NCI-H522 (Homo sapiens, NCI-H522), above 100 µM. This molecule also had a pIC50 on Tubulin below 4.40.

Turning to `COc1cc(CNc2ccc(SC)cc2)cc(OC)c1OC` [listing 1 of 2 here], the GI50 in the assay on OVCAR-3 (Homo sapiens, OVCAR-3) is 5.93 µM; in the assay with DMS-273 (Homo sapiens, DMS-273), 3.09 µM; with HL-60 (Homo sapiens, HL-60) it was 3.7 µM; with SF-295, 7.28 µM; in the assay on M14 (Homo sapiens, M14), 5.26 µM; in the assay with COLO 205 (Homo sapiens, COLO 205) it was 3.88 µM. Besides, the GI50 came to 32 µM in the assay with CAKI-1 (Homo sapiens, CAKI-1) and 4.68 µM in the assay on NCI-H522 (Homo sapiens, NCI-H522). Further, the pIC50 at Tubulin was below 4.40.

As for `COc1cc(CNc2ccc(SC)cc2)cc(OC)c1OC` [listing 2 of 2 here], the GI50 in the assay with OVCAR-3 worked out at 4.85 µM; in the assay on DMS-273, 4.91 µM; with HL-60 it was 3.29 µM; with SF-295 it was 3.41 µM; with M14, 4.84 µM; with COLO 205, 3.6 µM. Further, the concentration for 50% growth inhibition (GI50) in the assay on CAKI-1 is 16.3 µM; in the assay with NCI-H522, 2.95 µM. On Tubulin, this molecule showed a pIC50 of 4.80.

Take `COc1ccc(/N=C/c2cc(OC)c(OC)c(OC)c2)cc1`: the concentration for 50% growth inhibition (GI50) in the assay with OVCAR-3 (Homo sapiens, OVCAR-3) is above 100 µM; in the assay on DMS-273 (Homo sapiens, DMS-273), 33 µM; in the assay on CAKI-1 (Homo sapiens, CAKI-1), above 100 µM; in the assay with NCI-H522 (Homo sapiens, NCI-H522), above 100 µM. Moreover, at Tubulin, the pIC50 is below 4.40.

As for `CCOc1ccc(/N=C/c2cc(OC)c(OC)c(OC)c2)cc1`, the GI50 in the assay on OVCAR-3 (Homo sapiens, OVCAR-3) was above 100 µM; in the assay on DMS-273 (Homo sapiens, DMS-273) it was above 100 µM; in the assay on HL-60 (Homo sapiens, HL-60), above 100 µM; in the assay with SF-295 (Homo sapiens, SF-295) it was above 100 µM; with M14 (Homo sapiens, M14), above 100 µM; in the assay with CAKI-1 (Homo sapiens, CAKI-1), above 100 µM. In addition, in the assay with NCI-H522 (Homo sapiens, NCI-H522), the GI50 was above 100 µM. For the same molecule, the pIC50 against Tubulin is below 4.40.

Turning to `CCc1ccc(NCc2cc(OC)c(OC)c(OC)c2)cc1` [listing 2 of 2 here], the GI50 in the assay on OVCAR-3 (Homo sapiens, OVCAR-3) is 0.283 µM; in the assay on DMS-273, 0.135 µM; in the assay with HL-60 (Homo sapiens, HL-60), 0.168 µM; in the assay on SF-295 (Homo sapiens, SF-295), 0.266 µM; with M14 (Homo sapiens, M14), 0.315 µM; with COLO 205 (Homo sapiens, COLO 205) it was 0.344 µM. The GI50 in the assay on CAKI-1 (Homo sapiens, CAKI-1) came to 0.354 µM; with NCI-H522 (Homo sapiens, NCI-H522), 0.234 µM. Besides, the pIC50 against Tubulin is 5.52.

With `COc1ccc(NCc2cc(OC)c(OC)c(OC)c2)cc1` [listing 2 of 2 here], the GI50 in the assay on OVCAR-3 amounted to 1.96 µM; in the assay on DMS-273 it was 0.534 µM; in the assay with HL-60 it was 0.834 µM; in the assay with SF-295, 2.32 µM; with M14 (Homo sapiens, M14), 2.38 µM; in the assay with COLO 205 it was 1.66 µM. Moreover, the GI50 worked out at 2.5 µM with CAKI-1 and 2.76 µM in the assay with NCI-H522. Besides, the pIC50 at Tubulin was 5.05.
